Results as given in US8686001B2, “Medicament for treating glaucoma comprising as an active ingredient cyclodextrin-clathrate compound of cilostazol” (Otsuka Pharmaceutical Co., Ltd., priority 2007, dated 2014).

Columns and labels:
[1] = Comparative experiment of manufacturing method: solubility of cilostazol in HP-β-CD, dissolving method (1) vs (2); type: physicochemical
Description: To cilostazol suspension (0.5%, suspended in physiological saline) was added HP-β-CD powder so that the final concentration of the HP-β-CD should be 5-20%, and the mixture was completely dissolved (the procedure is termed as “dissolving method (1)”). On the contrary, to HP-β-CD solution (5-20%, dissolved in physiological saline) was added cilostazol powder (final concentration: 0.5%), and the mixture was completely dissolved (the procedure is termed as “dissolving method (2)”). Both the above solutions were stirred at 25° C. for 24 hours under the shade, then filtrated with membrane filter (pore size: 0.2 μm), and compared about the solubility of the solutions. […] Actually, it needed 10 minutes' stirring for the solution derived from dissolving method (1) to reach the state of the dissolution curve shown in FIG. 1. […] (The above concentrations are shown as weight/volume %.)

[2] = Dissolution experiment of cilostazol nano (nano-CLZ) in HP-β-CD, dissolving method (1) vs (2); type: physicochemical
Description: CLZ and an excipient were mixed in a ratio of about 80%:20% to give a nano-CLZ powder. To a nano-CLZ suspension (0.5% CLZ suspension: which was prepared by suspending 120 mg of the nano-CLZ powder in 20 mL of purified water), HP-β-CD powder was added and the mixture was dissolved so that the final concentration of HP-β-CD should be 5-20% (dissolving method (1)); while 120 mg of the nano-CLZ powder was added to a HP-β-CD solution (which was prepared by dissolving HP-β-CD in purified water so that the final concentration of HP-β-CD should be 5-20%), and the mixture was dissolved (the final concentration of CLZ is 0.5%) (dissolving method (2)). Both the above solutions were stirred at 25° C. for 24 hours under the shade, then filtrated with membrane filter (pore size: 0.2 μm), and compared about the solubility of the solutions.
Actually, it needed 30 minutes' stirring for the solution derived from dissolving method (1) to reach the state of the dissolution curve shown in FIG. 2. […] (The above concentrations are shown as weight/volume %.)

Compound: O=C1CCc2cc(OCCCCc3nnnn3C3CCCCC3)ccc2N1 [cilostazol, 6-[4-(1-cyclohexyl-1H-tetrazol-5-yl)butoxy]-3,4-dihydrocarbostyril]
- solubility of cilostazol, dissolving method (1) compared with dissolving method (2) ([1]; 0.5% cilostazol, 5-20% HP-β-CD in physiological saline, stirred 25° C. 24 hours under the shade, 0.2 μm filtrate, FIG. 1): tended to increase more
- stirring needed to reach the state of the dissolution curve ([1]; dissolving method (1): HP-β-CD powder added to cilostazol suspension, FIG. 1): 10 min
- solubility after 10 minutes stirring relative to the solubility shown in FIG. 1 ([1]; dissolving method (2): cilostazol powder added to HP-β-CD solution): one fifth or less
- solubility of cilostazol, dissolving method (1) compared with dissolving method (2) ([2]; nano-CLZ powder, 0.5% CLZ, 5-20% HP-β-CD in purified water, stirred 25° C. 24 hours under the shade, 0.2 μm filtrate, FIG. 2): tended to increase more
- stirring needed to reach the state of the dissolution curve ([2]; nano-CLZ, dissolving method (1), FIG. 2): 30 min
- solubility after 30 minutes stirring relative to the solubility shown in FIG. 2 ([2]; nano-CLZ, dissolving method (2)): half or less
